Article PMC9977398, “Next-generation membrane-active glycopeptide antibiotics that also inhibit bacterial cell division” (Chemical Science, 2023)

Key:
B. subtilis = assay: BacLight assay (pore formation assay); assay type: cell-based; conditions: treatment at PEC
Text: To examine if the compounds form pores on the membrane, a mixture of the fluorescent dyes SYTO 9 and PI was used. While SYTO 9 penetrates both intact and permeabilized cells staining them green, PI is unable to cross the intact membrane and stains only permeabilized or dead cells red. Membrane-disrupting antibiotics such as nisin are known to form pores in the membrane is stained by both SYTO 9 and PI (Fig. 4D). […] Around 20% of the cells visualized post-treatment with both compounds were stained by PI and therefore permeabilized. […]
and the untreated control were carefully removed from the well, washed with 0.9 % saline, and placed on glass slides. The biofilms were then stained with 10 μL of SYTO9 (60μM) and imaged using a Zeiss 510 Meta confocal laser-scanning microscope. The orthogonal projections of the images were processed with LSM 5 Image examiner. […]
Overnight cultures of B. subtilis 168 were grown in 50 mL flasks in 5 mL BMM media. […] The MIC was determined as the lowest concentration at which no visible bacterial OD […]
Overnight cultures of B. subtilis 168 were grown in 50 mL flasks with 10 mL of media. […] The O.D. of the solutions are recorded every 30 minutes. […]
resuspended in prewarmed BMM media. […] The fluorescence in the GFP and Texas red channels was then observed under the microscope. […]

ΔamiAC MG1655 E. coli = assay: Microscopy of ΔamiAC MG1655 E. coli; assay type: cell-based; conditions: sub-inhibitory concentrations: vancomycin 3 μM, VanQAmC10 2 μM (Fig. 5D)
Procedure: The bacterial amidases help cleave the septum in the final stage of cell division to produce daughter cells.[39] In the absence of amidases, chains of unseparated cells are formed (Fig. 5D). These retain distinct cytoplasmic compartments but share an outer membrane.[39] These cells are known to be hypersensitive to antibiotics and detergents. However, ΔamiAC mutations are resistant to killing by cephalexin.[38] The MIC of VanQAmC10 against the ΔamiAC mutant was reduced to 4 μM, while that of vancomycin was >10 μM. […] This is indicative of impaired cell division. Cell debris due to lysis after compound treatment are also visible. […]
from 10 μg/mL. The bacteria with compounds and untreated control were incubated for 18 h at 37 ̊C under shaking and OD600 was measured.
Microscopy of ΔamiAC MG1655 E. coli
ΔamiAC MG1655 was cultured overnight in LB media at 37 ̊C. […]
MRSA ATCC 33591 was grown to mid-log phase at 37 °C. […] The viable bacteria were then counted after 48 h incubation at 37 °C. […]
Antagonization of antibacterial activity of AAV-qC10 was determined by addition of 500 μM N,N՛-diacetyl–L-Lys–D-Ala–D-Ala or 100 μg/mL of lipoteichoic acid to serial dilutions of the test compound. The MIC was then determined against MRSA by measuring the OD600 18-24 […]
Vancomycin was chosen as control antibiotic for MRSA. The initial MIC values of VanQAmC10, vancomycin were determined against the respective bacteria. […]

CNC(CC(C)C)C(=O)NC1C(=O)NC(CC(N)=O)C(=O)NC2C(=O)NC3C(=O)NC(C(=O)NC(C(=O)NCCC[N+](C)(C)Cc4ccc(-c5ccccc5)cc4)c4cc(O)cc(O)c4-c4cc3ccc4O)C(O)c3ccc(c(Cl)c3)Oc3cc2cc(c3OC2OC(CO)C(O)C(O)C2OC2CC(C)(N)C(O)C(C)O2)Oc2ccc(cc2Cl)C1O (stereo not shown) [VanQbiph (4)]
pore formation (co-staining SYTO 9 and PI) (B. subtilis): did not co-stain cells with both the dyes

CCCCCCCCCCNC(=O)C[N+](C)(C)CCCNC(=O)C1NC(=O)C2NC(=O)C(NC(=O)C3NC(=O)C(CC(N)=O)NC(=O)C(NC(=O)C(CC(C)C)NC)C(O)c4ccc(c(Cl)c4)Oc4cc3cc(c4OC3OC(CO)C(O)C(O)C3OC3CC(C)(N)C(O)C(C)O3)Oc3ccc(cc3Cl)C2O)c2ccc(O)c(c2)-c2c(O)cc(O)cc21 (stereo not shown) [VanQAmC10 (8)]
morphology of ΔamiAC mutant (ΔamiAC MG1655 E. coli): larger cell phenotypes of variable sizes
pore formation (co-staining SYTO 9 and PI) (B. subtilis): did not co-stain cells with both the dyes

CN[C@H](CC(C)C)C(=O)N[C@H]1C(=O)N[C@@H](CC(N)=O)C(=O)N[C@H]2C(=O)N[C@H]3C(=O)N[C@H](C(=O)N[C@H](C(=O)O)c4cc(O)cc(O)c4-c4cc3ccc4O)[C@H](O)c3ccc(c(Cl)c3)Oc3cc2cc(c3O[C@@H]2O[C@H](CO)[C@@H](O)[C@H](O)[C@H]2O[C@H]2C[C@](C)(N)[C@H](O)[C@H](C)O2)Oc2ccc(cc2Cl)[C@H]1O [Vancomycin, reference compound]
morphology of ΔamiAC mutant (ΔamiAC MG1655 E. coli): few cells appear larger and bulky while most appear similar to the untreated bacteria
